Series [1] can be described thus: Stability of MUG-HSA in medium without cells. It is filed as in vitro ADME. An excerpt:
(§1) The amounts given in the Figure relate to 1 well and the methyl umbelliferon glucuronide within the HSA conjugate. After addition of 1 M NaOH methyl umbelliferon was fluorimetrically determined in the cell subernatant at 448 nm with an excitation at 360 nm. […] Thus, despite its coupling to albumin MUG-HSA is a substrate for human synovial fribroblasts. MUG-(HSA) is stable in medium without cells.

For series [2], the system named is synovial fibroblasts (sFb). Put plainly: Release of a fluorescent aglycon (methyl umbelliferon) from MUG-HSA in human synovial fibroblasts. It is filed as cell-based.
Excerpt: as §1

The subject of a further series is WEHI-7 cells. Put plainly: Induction of cell death in glucocorticoid-sensitive WEHI-7 cells (propidium iodide staining, fluorimetric analysis). In kind it is cell-based, mouse. As to the method:
Cell death in glucocorticoid-sensitive WEHI-7 cells was induced by incubation with low molecular hydrocortisone (HC) and albumin-coupled hydrocortisone (hydrocortisone-21-β-D-glucuronide-HSA; HCG-HSA) over a period of 72 h. Different albumin concentrations were equalized by addition of free HSA. Dead cells were determined by fluorimetric analysis (staining with propidium iodide (PI)). […] Since the albumin conjugate was taken up by the cells via endocytosis (whereas the free HC passes the cell membrane via diffusion) HCG-HSA has to be applied in a two-fold concentration for achieving the same effect.

Turning to “methyl umbelliferon glucuronide-HSA [MUG-HSA]”, the stability in medium result in series [1] is on record as “stable”. In series [2] (in conditioned medium of synovial fibroblasts), the “cleavage of fluorescent methyl umbelliferon” value is “could be demonstrated”. For the same substance, the Cleavage result in series [2] (incubation for 24 h in synovial fibroblasts, methyl umbelliferon fluorimetrically determined in supernatant at 448 nm, excitation 360 nm, Figure 4) is given as “could be demonstrated”.

Consider “hydrocortisone-21-β-D-glucuronide-HSA [HCG-HSA]”, for which the “concentration for achieving the same effect” value in the series with WEHI-7 cells (HCG-HSA relative to free HC, WEHI-7 cells, 72 h) is given as “two-fold”. Also, the “activity as a glucocorticoid” value in the series with WEHI-7 cells (despite coupling to albumin, WEHI-7 cells, 72 h) is listed as “keeps its activity”. For the same substance, in the series on WEHI-7 cells (incubation over 72 h, albumin concentrations equalized with free HSA, dead cells by PI staining, Figure 3), the Cell death result is recorded as “dose dependent cell death”.

(Values after EP1625854B1, “Albumin conjugates containing a glucuronic linker” (Deutsches Krebsforschungszentrum Stiftung des öffentlichen …, priority 2004, dated 2006).)
